Among the data in US5476841A, “Inhibitors of herpes viral ribonucleotide reductase” (Bio-Mega/Boehringer Ingelheim Research Inc., priority 1994, dated 1995) are EC50 and IC50 values, retold here.

One assay relates to HSV-2. Nature of the assay: Inhibition of Herpes Simplex virus (HSV-2) replication in cell culture. The class given is cell-based. To be noted: BHK-21/C13 cells, serum starved, HSV-2 strain HG-52, 0.02 PFU/cell, 29 h incubation; read-out: EC50, concentration effecting a 50% inhibition of HSV-2 virus replication. On the procedure: Inhibition of Herpes Simplex virus (HSV-2) Replication in Cell Culture
BHK-21/C13 cells (ATCC CCL 10) are incubated for two days in 150 cm^2 T-flasks (1.5×10^6 cells/flask) with alpha-MEM medium (Gibco Canada Inc., Burlington, Ontario, Canada) supplemented with 8% (v/v) fetal bovine serum (FBS, Gibco Canada Inc.). The cells are trypsinized and then transferred to fresh media in a 24 well plate to give 2.5×10^5 cells in 750 μL of media per well. The cells are incubated at 37° for a period of 6 h to allow them to adhere to the plate. Thereafter, the cells are washed once with 500 μL of alpha-MEM supplemented with 0.5% (v/v) FBS and then incubated with 750 μL of the same media (low serum) for 3 days. After this period of serum starvation, the low serum medium is removed and the cells are incubated in 500 μL of BBMT for 2 to 3 hours. {BBMT medium is described by P. Brazeau et al., Proc. Natl. Acad. Sci. USA, 79, 7909 (1982).} Thereafter, the cells are infected with HSV-2 (multiplicity of infection=0.02 PFU/cell) in 100 μL of BBMT medium. (Note: The HSV-2 used was strain HG-52, see Y. Langelier and G. Buttin, J. Gen. Virol., 57, 21 (1981); the virus was stored at -80°.) Following 1 h of virus adsorption at 37°, the media is removed and the cells are washed with BBMT (3×250 μL). The cells in each well are incubated with or without (control) appropriate concentrations of the test agent dissolved in 200 μL of BBMT medium. After 29 h of incubation at 37°, the infected cells are harvested by first freezing the plate at -80°, followed by thawing. The cells in each well are scraped off the surface of the well with the help of the melting ice fragments. After complete thawing, the cell suspensions are collected and each well is rinsed with 150 μL of BBMT medium. The viral sample (suspension plus washing) is sonicated gently for 4 min at 4°. Cell debris are removed by centrifugation (1000 times gravity for 10 minutes at 4°). The supernatant is collected and stored at -80° until determination of viral titer.
Viral titration was performed by a modification of the colorimetric assay method of M. Langlois et al., Journal of Biological Standardization, 14, 201 (1986), and which is described in detail by R. Deziel and Y. Guindon, supra.
Accordingly, the percentage of virus growth inhibition can be determined for the various concentrations of the test agent, and the concentration of the test agent (i.e. the peptide of formula 1) effecting a 50% inhibition of virus replication, i.e. the EC50, can be calculated.

Assay [1] deals with T1, HSV-1 ribonucleotide reductase (Human herpesvirus 1, UniProt P08543).
T1 construct: obtained from quiescent BHK-21/C13 cells infected with strain F HSV-1 virus; made in house; host or cells: quiescent BHK-21/C13 cells infected with HSV-1 strain F (virus-encoded enzyme, partially purified)
T1 sequence (P08543 whole entry): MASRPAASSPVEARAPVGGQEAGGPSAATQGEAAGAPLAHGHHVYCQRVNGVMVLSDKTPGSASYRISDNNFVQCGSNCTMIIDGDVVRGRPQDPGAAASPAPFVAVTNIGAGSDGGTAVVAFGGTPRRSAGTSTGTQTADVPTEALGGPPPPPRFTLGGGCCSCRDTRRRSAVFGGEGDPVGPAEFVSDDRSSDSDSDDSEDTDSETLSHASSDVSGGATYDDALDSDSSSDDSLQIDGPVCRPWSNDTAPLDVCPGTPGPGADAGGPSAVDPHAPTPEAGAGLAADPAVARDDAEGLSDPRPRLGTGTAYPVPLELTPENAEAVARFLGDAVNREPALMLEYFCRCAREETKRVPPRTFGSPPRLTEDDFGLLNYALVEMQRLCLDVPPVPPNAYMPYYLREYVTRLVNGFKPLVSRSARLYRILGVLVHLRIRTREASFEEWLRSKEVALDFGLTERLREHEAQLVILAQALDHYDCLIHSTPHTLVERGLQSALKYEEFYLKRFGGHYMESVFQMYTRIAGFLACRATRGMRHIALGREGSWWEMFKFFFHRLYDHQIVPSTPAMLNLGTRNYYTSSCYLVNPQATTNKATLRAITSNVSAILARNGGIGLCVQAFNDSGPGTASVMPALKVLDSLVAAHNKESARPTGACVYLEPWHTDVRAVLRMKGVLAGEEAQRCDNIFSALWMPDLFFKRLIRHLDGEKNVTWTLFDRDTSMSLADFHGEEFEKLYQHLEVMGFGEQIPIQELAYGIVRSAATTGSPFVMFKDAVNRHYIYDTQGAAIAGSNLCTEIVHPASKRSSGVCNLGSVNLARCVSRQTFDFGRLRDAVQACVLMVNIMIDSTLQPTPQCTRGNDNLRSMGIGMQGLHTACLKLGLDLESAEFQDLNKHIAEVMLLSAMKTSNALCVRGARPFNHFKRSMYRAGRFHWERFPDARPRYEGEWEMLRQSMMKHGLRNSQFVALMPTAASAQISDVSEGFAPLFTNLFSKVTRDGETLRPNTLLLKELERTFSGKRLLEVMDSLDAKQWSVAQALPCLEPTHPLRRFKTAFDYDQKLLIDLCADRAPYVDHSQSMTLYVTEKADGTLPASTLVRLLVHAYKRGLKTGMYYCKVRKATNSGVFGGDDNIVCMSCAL
Nature of the assay: Inhibition of Herpes Simplex virus (HSV-1) ribonucleotide reductase. To be noted: partially purified enzyme from HSV-1 strain F infected BHK-21/C13 cells; mean of four assays; read-out: IC50, concentration causing a 50% reduction of the HSV-1 ribonucleotide reductase activity. The class given is biochemical. The source says: Inhibition of Herpes Simplex virus (HSV-1) Ribonucleotide Reductase
HSV-1 ribonucleotide reductase (partially purified) was obtained from quiescent BHK-21/C13 cells infected with strain F HSV-1 virus at 10 plaque forming units/cell as described by E. A. Cohen et al., J. Gen. Virol., 66, 733 (1985).
The assay described by P. Gaudreau et al., J. Biol. Chem., 262, 12413 (1987), is used to evaluate the capability of the compounds of this invention to inhibit HSV-1 ribonucleotide reductase activity. Results are expresed as the concentration of the compound producing 50% of the maximal inhibition (IC50) of enzyme activity. The number of units of the enzyme preparation used in each assay was constant, based on the specific activity of the enzyme preparation. The results are relative to the activity obtained in control experiments without the test compound and represent the mean of four assays that varied less than 10% with each other.

Each structure is given as a SMILES string. pEC50, pIC50: −log10 of the molar value. Where a SMILES comes first, the peptide text is derived from it. [ ]: non-standard residue; d: D form. The star is where a group is joined. Asp(3,3-(CH2)4) = N[C@H](C(=O)O)C1(C(=O)O)CCCC1; Dibenzylacetyl = O=C(C(Cc1ccccc1)Cc1ccccc1)*; Leu(γ-Me)ol = CC(C)(C)C[C@@H](CO)N*; tBuAla = CC(C)(C)C[C@H](N)C(=O)O; Tle = CC(C)(C)[C@H](N)C(=O)O; NMeV = CN[C@H](C(=O)O)C(C)C; X1 = CC[C@@H](N*)C(C)(C)C; Pyrrolidide = C1CCN(*)C1; NHCH2tBu = CC(C)(C)CN*

As for `CC(C)[C@@H](C(=O)N[C@H](C(=O)N[C@@H](CC(=O)N1CCCC1)C(=O)N[C@H](C(=O)N[C@@H](CC(C)(C)C)C(=O)O)C1(C(=O)O)CCCC1)C(C)(C)C)N(C)C(=O)C(Cc1ccccc1)Cc1ccccc1` [(PhCH2)2 CHC(O)--(N-Me)-Val-Tbg-Asp (pyrrolidino)-Asp(cyPn)-γMeLeu-OH] (Dibenzylacetyl-[NMeV][Tle]D(Pyrrolidide)[Asp(3,3-(CH2)4)][tBuAla]-OH), in the assay on HSV-2, the pEC50 is 5.22.

In the case of `CC(C)[C@@H](C(=O)N[C@H](C(=O)N[C@@H](CC(=O)N1CCCC1)C(=O)N[C@H](C(=O)NCC(C)(C)C)C1(C(=O)O)CCCC1)C(C)(C)C)N(C)C(=O)C(Cc1ccccc1)Cc1ccccc1` [(PhCH2)2 CHC(O)--(N-Me)-Val-Tbg-Asp(pyrrolidino)-Asp(cyPn)-NHCH2 C(CH3)3] (Dibenzylacetyl-[NMeV][Tle]D(Pyrrolidide)[Asp(3,3-(CH2)4)]-NHCH2tBu), in the assay on HSV-2, the pEC50 is 5.80.

As to `CC[C@@H](NC(=O)[C@@H](NC(=O)[C@H](CC(=O)N1CCCC1)NC(=O)[C@@H](NC(=O)[C@H](C(C)C)N(C)C(=O)C(Cc1ccccc1)Cc1ccccc1)C(C)(C)C)C1(C(=O)O)CCCC1)C(C)(C)C` [(PhCH2)2 CHC (O)--(N-Me)-Val-Tbg-Asp(pyrrolidino)-Asp(cyPn)-NH--(R)--CH(C2 H5)C(CH3)3] (Dibenzylacetyl-[NMeV][Tle]D(Pyrrolidide)[Asp(3,3-(CH2)4)]-X1), the pEC50 in the assay on HSV-2 is > 5.70.

For `CC(C)[C@@H](C(=O)N[C@H](C(=O)N[C@@H](CC(=O)N1CCCC1)C(=O)N[C@H](C(=O)N[C@H](CO)CC(C)(C)C)C1(C(=O)O)CCCC1)C(C)(C)C)N(C)C(=O)C(Cc1ccccc1)Cc1ccccc1` [Example 3, (PhCH2)2 CHC(O)--(N-Me)-Val-Tbg-Asp(pyrrolidino)-Asp(cyPn)-γMeLeucinol] (Dibenzylacetyl-[NMeV][Tle]D(Pyrrolidide)[Asp(3,3-(CH2)4)]-{Leu(γ-Me)ol}), the pEC50 in the assay on HSV-2 was 5.52. Moreover, the pIC50 in assay [1] was 6.77.
